We go through seven compounds from BindingDB's records for doi:10.1021/jm800566m (Gsk, 2008).

As a reminder, the IC50 is the midpoint of a concentration-inhibition curve. Lower therefore signals inhibition by little substance.

The test in a line: The assay uses purified baculovirus-expressed GST-VEGFR2 interacting with biotinylated peptide substrates. HTRF is based on the proximity of europium cryptate (donor fluorophore)-labeled antiphosphotyrosine and streptavidin labeled with APC (allophycocyanin), which have been brought together by a binding reaction. As to conditions: pH 7.5.
On to `Cc1nc2cc(N(C)c3ccnc(Nc4cccc(S(N)(=O)=O)c4)n3)ccc2n1C` [3-({4-[(1,2-dimethyl-1H-1,3-benzodiazol-5-yl)(methyl)amino]pyrimidin-2-yl}amino)benzene-1-sulfonamide], for which the IC50 was found to be 17 nM.

Compound `Cc1nc2ccc(N(C)c3ccnc(Nc4cccc(S(N)(=O)=O)c4)n3)cc2n1C` [3-({4-[(1,2-dimethyl-1H-1,3-benzodiazol-6-yl)(methyl)amino]pyrimidin-2-yl}amino)benzene-1-sulfonamide] came in with an IC50 of 63 nM.

Compound `Cc1nn(C)c2cc(N(C)c3ccnc(Nc4cccc(S(N)(=O)=O)c4)n3)ccc12` [3-({4-[(1,3-dimethyl-1H-indazol-6-yl)(methyl)amino]pyrimidin-2-yl}amino)benzene-1-sulfonamide] showed a concentration for half-maximal inhibition (IC50) of 36 nM.

As for `Cc1c2ccc(N(C)c3ccnc(Nc4cccc(S(N)(=O)=O)c4)n3)cc2nn1C` [3-({4-[(2,3-dimethyl-2H-indazol-6-yl)(methyl)amino]pyrimidin-2-yl}amino)benzene-1-sulfonamide], the concentration for half-maximal inhibition (IC50) stood at 5.6 nM.

Regarding `Cc1c2ccc(N(C)c3ccnc(Nc4cccc(S(N)(=O)=O)c4)n3)cc2nn1Cc1ccccc1` [3-({4-[(2-benzyl-3-methyl-2H-indazol-6-yl)(methyl)amino]pyrimidin-2-yl}amino)benzene-1-sulfonamide], the IC50 is 2.6 nM.

In turn, `CN(c1ccc2cn(C)nc2c1)c1ccnc(Nc2cccc(S(N)(=O)=O)c2)n1` [3-({4-[methyl(2-methyl-2H-indazol-6-yl)amino]pyrimidin-2-yl}amino)benzene-1-sulfonamide] returned an IC50 of 7.6 nM.

`Cc1n[nH]c2cc(N(C)c3ccnc(Nc4cccc(S(N)(=O)=O)c4)n3)ccc12` [3-({4-[methyl(3-methyl-1H-indazol-6-yl)amino]pyrimidin-2-yl}amino)benzene-1-sulfonamide] showed a half-inhibitory concentration (IC50) of 0.6 nM.
